US20240016882A1, “AUTOPHAGY-INHIBITING PEPTIDE AND ORGANIC ACID SALT THEREOF ADDRESSING ISSUES OF VASCULAR PERMEABILITY” (BIOTEMPT B.V., priority 2020, published 2024)
Where two headings read alike, the source gives them in different places. Blank lines part the entries; values can stand above or below the molecule they belong to. Ends that are not written are not given here. Peptide text beside a SMILES is read from it.

Columns and labels:
[1] = Solubility / aggregation points of AQGV salts in 0.9% NaCl
Excerpt: (§1) At first attempts were made to mix a solution of the free base and an acid in order to achieve a concentrated DMSO solution of the salt and subsequently dilute this in water in order to determine solubility. […] It was decided to determine the solubility of the salts required by dilution of known amount of salts (not soluble) till a clear solution is obtained.

mTOR kinases = mTOR kinases (Homo sapiens, UniProt P42345); details: cited from earlier work
autophagy = details: cited from earlier work
human cells = details: AJ Meijer et al Amino Acids 2015; cited from earlier work
p38 MAPK = test: Phosphorylation status after fMLP challenge of hPBMCs: p38 MAPK; assay type: cell-based, human; details: 1 μM fMLP
Method: (§2) Human-derived peripheral blood monocytes as a prototype cell-system for FPR-expression were isolated from healthy volunteers (hPBMCs) according to routine procedures^1 at University Medical Centre Groningen, The Netherlands. Subsequently PMBC were incubated with the Biotempt-supplied peptide AQGV (SEQ ID NO: 5) (which was freshly prepared as a 20 […] stock solution in bidistilled water) or treated with the vehicle for 10 min. Then hPMBCs were challenged with 1 μM fMLP for various time periods (see results FIGS. 4a, b, 4c and 4d). Each stimulus 0, 30, 60, 300 and 600 seconds at two concentrations AQGV (SEQ ID NO: 5), 20 ng/ml and 50 ng/ml and in six-fold. Following stimulation with fMLP for the indicated time periods, the phosphorylation status of p38MAPK, JNK, PKB, P42/p44MAPK/ERK1,2 and STAT3 was analysed 3. STAT3 was undetectable, JNK and P42/p44MAPK/ERK1,2.

PKB (also known as AKT) = test: Phosphorylation status after fMLP challenge of hPBMCs: PKB (AKT); assay type: cell-based, human; details: 1 μM fMLP
Method: as §2

[2] = set-up: species or system male CD-1 mice; details: mouse, in vivo
Method: The present study, which was conducted by TNO Biosciences, Utrechtseweg, Netherlands, was designed to provide data on the distribution and metabolism of [14C]-AQGV (“AQGV” disclosed as SEQ ID NO: 5) (Ala-Gln-[1-^14C]Gly-Val (“AQGV” disclosed as SEQ ID NO: 5)) in male CD-1 mice following a single intravenous dose of 50 mg/kg. To this end, mice were sacrificed at […], and 6 and 24 hours after administration of radiolabeled AQGV (SEQ ID NO: 5), counts in various tissues were determined, and the radioactivity present in the urine and plasma were analyzed by HPLC.

[3] = Excerpt: as §1
[4] = Dose-escalating phase I studies: pharmacokinetics, safety and tolerability of AQGV; assay type: in vivo, humans (healthy subjects)
Method: Three double-blind, randomized, placebo-controlled, dose-escalating phase I studies in healthy subjects were conducted to evaluate safety, tolerability and pharmacokinetics of AQGV (SEQ ID NO: 5). In the first single dose study, 32 subjects were assigned to four single dosage groups (1, 3, 10 or 30 mg/kg). In the second multiple dosage study, 24 subjects were assigned to three dosing groups (10, 20 or 30 mg/kg) and received study medication thrice a day for three days. In the third continuous dosing study, 24 subjects were assigned to three dosing groups (15, 30 or 90 mg/kg/hour) to receive study medication by 2-hour continuous iv infusion. Pharmacokinetics (PK), safety and tolerability assessments were performed up to 14-days.

[5] = Previous first in human study of AQGV; assay type: in vivo; details: up to i.v. doses of 30 mg/kg three times a day (90 mg/kg daily) for three days
JNK = test: Phosphorylation status after fMLP challenge of hPBMCs: JNK; assay type: cell-based, human; details: hPBMC, 1 μM fMLP, 0-600 seconds
Method: as §2

P42/p44MAPK/ERK1,2 = test: Phosphorylation status after fMLP challenge of hPBMCs: P42/p44MAPK/ERK1,2; assay type: cell-based, human; details: hPBMC, 1 μM fMLP, 0-600 seconds
Method: as §2

[6] = cited from earlier work

solubility compared to AQGV-Ac ([1]; 0.9% NaCl): Higher solubility
appearance / behaviour of the concentrated solution ([1]; 0.9% NaCl, listed as citric acid): remains clear but got very thick/viscous
total amount dissolved ([1]; in 0.5 mL 0.9% NaCl): 2.75 mmol
Molecule: CC(C)[C@H](NC(=O)CNC(=O)[C@H](CCC(N)=O)NC(=O)[C@H](C)N)C(=O)O [AQGV-citrate] (H-AQGV-OH)
appearance / behaviour of the concentrated solution ([1]; 0.9% NaCl, listed as Citric acid): does not crystallize or aggregate but tend to form a highly viscous solution

Molecule: CC(C)C[C@H](N)C(=O)O [L-Leucine]
Literature based activity mTOR kinases (mTOR kinases): activate
Literature based activity autophagy (autophagy): DOWN
autophagic effects on human cells (human cells): most prominent autophagic effects

appearance / behaviour of the concentrated solution ([1]; 0.9% NaCl): no clear solution could be obtained
Molecule: Nc1ncnc2c1ncn2[C@@H]1O[C@H](COP(=O)(O)O)[C@@H](O)[C@H]1O [adenosine-monophosphate]

Molecule: N[C@@H](Cc1c[nH]cn1)C(=O)O [L-Histidine]
Literature based activity mTOR kinases (mTOR kinases): down

Molecule: CC[C@H](C)[C@H](N)C(=O)O [L-Isoleucine]
Literature based activity mTOR kinases (mTOR kinases): activate
Literature based activity autophagy (autophagy): DOWN

Molecule: CSCC[C@H](NC=O)C(=O)N[C@@H](CC(C)C)C(=O)N[C@@H](Cc1ccccc1)C(=O)O [fMLP, N-formyl-methionyl-leucyl-phenylalanine, reference compound]
changes in phosphorylation status of p38 MAPK caused by FPR-activation (p38 MAPK; p<0.05 from 60 to 600 sec): rapidly induced and significant
changes in phosphorylation status of PKB caused by FPR-activation (PKB (also known as AKT); p<0.05 at 600 sec): rapidly induced and significant

Molecule: CC(C)[C@H](N)C(=O)O [L-Valine]
Literature based activity mTOR kinases (mTOR kinases): activate

Molecule: CSCC[C@H](N)C(=O)O [L-Methionine]
Literature based activity mTOR kinases (mTOR kinases): partial

Molecule: NC(=O)CC[C@H](N)C(=O)O [L-Glutamine]
Literature based activity mTOR kinases (mTOR kinases): activate
Literature based activity autophagy (autophagy): DOWN
autophagic effects on human cells (human cells): most prominent autophagic effects

administered radioactivity exhaled as volatiles [2]: About 50%
time to full hydrolysis of the peptide after administration [2]: 15 min
Molecule: Ala-Gln-[1-^14C]Gly-Val [[14C]-AQGV]

Molecule: O=C(O)[C@@H]1CCCN1 [L-Proline]
Literature based activity mTOR kinases (mTOR kinases): activate
autophagic effects on human cells (human cells): most prominent autophagic effects

Molecule: NCCCC[C@H](N)C(=O)O [L-Lysine]
Literature based activity mTOR kinases (mTOR kinases): down

appearance / behaviour of the concentrated solution ([1]; 0.9% NaCl): no clear solution could be obtained
solubility in DMSO [3]: did not dissolve in DMSO at all
Molecule: Nc1ncnc2c1ncn2[C@@H]1O[C@H](CO)[C@@H](O)[C@H]1O [adenosine]

Molecule: CC(C)[C@H](NC(=O)CNC(=O)[C@H](CCC(N)=O)NC(=O)[C@H](C)N)C(=O)O [AQGV] (H-AQGV-OH)
clearance ([4]; human, in vivo, iv, range over phase I studies, read-out: clearance rate): 433 to 1020 mL/min/kg
half-life ([4]; human, in vivo, iv, range over phase I studies, read-out: estimated half life time): 2 to 22 min
Vd ([4]; human, in vivo, iv, range over phase I studies, read-out: volume of distribution): 4 to 33 L/kg
more than proportional increases in exposure to the highest dosages ([4]; i.v., range over phase I studies): 126-137%
tolerability ([4]; i.v., single, multiple and continuous dosing up to 90 mg/kg/hour): well tolerated
serious adverse events ([4]; phase I studies): no serious adverse events
subjects reporting AEs with a possible relationship to study drug ([4]; subjects receiving AQGV): 3 subjects
tolerability [5]: well tolerated
effect on p38 MAPK kinase activated changes (p38 MAPK; hPBMC): reduces p38 MAPK kinase activated changes
time after FPR-stimulation at which effects on p38 MAPK are detected (p38 MAPK; hPBMC, 20 and 50 ng/ml AQGV): 30 s
duration of effects on p38 signalling (p38 MAPK; hPBMC, 600 seconds tested): 600 s
effect on PI3K/AKT/mTOR activated induced changes (PKB (also known as AKT); hPBMC): reduces PI3K/AKT/mTOR activated induced changes
duration of effects on PKB-mediated signalling (PKB (also known as AKT); hPBMC, 600 seconds tested): 600 s
time after FPR-stimulation at which effects on PKB(AKT) follow (PKB (also known as AKT); hPBMC, bi-phasic pattern): 300 s
effect on JNK phosphorylation status (JNK): not affected throughout
effect on P42/p44MAPK/ERK1,2 phosphorylation status (P42/p44MAPK/ERK1,2): not affected throughout

Molecule: NCC(=O)O [L-Glycine]
Literature based activity autophagy (autophagy): DOWN

Molecule: VRLIVAVRIWRR-NH2 [IDR-1018]
aggregation ([6]; prepared in sodium acetate): did not induce any appreciable aggregation
aggregation ([6]; solutions containing large polyatomic anions: phosphate, benzoate, nitrate, citrate): suffer strongly from aggregation
aggregation ([6]; solutions containing sulfate, bicarbonate, chloride, iodide anions): comparatively small amount of aggregation
ion concentration at which aggregation was observed ([6]; sulfate, bicarbonate, chloride, iodide anions): above 200 mM

Molecule: N=C(N)NCCC[C@H](N)C(=O)O [L-Arginine]
Literature based activity mTOR kinases (mTOR kinases): activate
Literature based activity autophagy (autophagy): DOWN

Molecule: C[C@H](N)C(=O)O [L-Alanine]
Literature based activity autophagy (autophagy): DOWN
autophagic effects on human cells (human cells): most prominent autophagic effects

Molecule: C[C@@H](O)[C@H](N)C(=O)O [L-Threonine]
Literature based activity mTOR kinases (mTOR kinases): down
